The values that follow come from US6884810B2, “Benzimidazole derivatives” (Zeria Pharmaceutical Co., Ltd., priority 2001, dated 2005).

Series [1] deals with T1, H+/K+-ATPase (Sus scrofa, UniProt P19156).
T1 construct: The mucous membrane layer was homogenized in Tris-HCl buffer; from tissue; host or cells: pig stomach body, mucous membrane layer, membrane fraction from a sucrose interface
As to the kind of experiment: Proton pump inhibitory action: activity of inhibiting H+/K+-ATPase (at pH 1). The note with it: pig gastric mucosa enzyme sample; test compounds pretreated in hydrochloric acid solution pH 1 (50% DMSO) for 15 minutes; read-out: Proton pump inhibitory action [IC50 (μmol/L)]. The class given is biochemical. The text has this: (Proton Pump Inhibitory Action)
(1) Preparation of Enzyme Sample (H^+/K^+-ATPase)
The stomach body removed from a pig, which had been stored in a frozen state, was separated into a muscle layer and a mucous membrane layer. The mucous membrane layer was homogenized in Tris-HCl buffer (20 mmol/L, pH 7.4) having a volume 5 times that of the layer and containing sucrose (0.25 mol/L) and EGTA (1 mmol/L) (hereinafter the mixture is referred to as Tris-HCl buffer) in a mixer. The homogenate was subjected to centrifugation (9,000×g, 30 minutes). The supernatant was softly placed on 8 mL Tris-HCl buffer (20 mmol/L, pH 7.4) containing 30% sucrose and 1 mmol/L EGTA. The mixture was subjected to ultracentrifugation at 100,000×g for 60 minutes. The interface fraction obtained through centrifugation was subjected to centrifugation (113,000×g, 60 minutes) twice. Pellet was suspended in Tris-HCl buffer, and the suspension was homogenized at low speed. The resultant homogenate served as an enzyme sample of interest and was stored at −80° C. The protein content of the sample was quantitated through use of a BCA protein assay reagent in accordance with a method described by Smith et al. (Anal. Biochem., 150, 76-85 (1985)). All these steps were performed under cooling with an ice bath.
(2) Activity of inhibiting H^+/K^+-ATPase (at pH 1)
Activity of inhibiting H^+/K^+-ATPase was measured in accordance with a method described in Biochem. Biophys. Res. Commun., 40, 880-886 (1970). Specifically, ATP was employed as a substrate, and inorganic phosphate, which is a resultant degradation product, was quantitated. In consideration of the solubility of test compounds, the test compounds were preliminarily treated with a hydrochloric acid solution (containing 50% DMSO, 1×10^−1 mol/L, pH 1). Each of the test compounds having different concentrations was added to the hydrochloric acid solution to thereby yield a 1,000—fold dilution, and thereafter, the diluted compound was allowed to stand for 15 minutes at room temperature. After these preliminary remedies, a 10 μL solution that had undergone the above preliminary remedies were added to 840 μL Tris-acetate buffer (40 mmol/L, pH 7.5, containing 2 mmol/L MgCl2, may be referred to as TE buffer) containing or not containing 20 mmol/L KCl. Subsequently, a 100 μL enzyme solution (5 μg protein) diluted with the TE buffer was added. Incubation was performed for 30 minutes at 37° C. Thereafter, a 50 μL ATP solution (40 mmol/L) which was dissolved in TE buffer not containing KCl was added to initiate enzyme reaction (total volume: 1 mL, ATP final concentration: 2 mmol/L). Incubation was performed for 30 minutes at 37° C. Subsequently, ice-cold 12% trichloroacetic acid (2 mL) was added, to thereby stop the enzyme reaction. A molybdenum reagent (1 mL, 3.75% ammonium molybdate/1.5 mol/L sulfuric acid) and butyl acetate (5 mL) were added, followed by mixing under vigorous shaking for 5 minutes. The absorption of the butyl acetate layer was measured at 310 nm. A standard curve was determined on the basis of absorption obtained through the similar procedure by use of KH2PO4 at different concentrations dissolved in 8% TCA solution, and inorganic phosphate content was calculated. Samples to be measured were prepared in duplicate. The measurements were averaged, and residual activity was obtained from the difference between the inorganic phosphate content as determined in a sample containing KCl and that as determined in a sample not containing KCl. Percentage inhibition activity was calculated with respect to the activity obtained from a control sample (DMSO), which was considered 100%. As the inhibitory potency of each test compound, IC50 values were computed and shown. All the test compounds were dissolved in dimethyl sulfoxide immediately before use.

The target of series [2] is T2, CYP2C19 (Homo sapiens, UniProt P33261).
T2 construct: purchased Sumitomo Chemical Co., Ltd; host or cells: yeast (microsomes)
As to the kind of experiment: Human CYP2C19 activity inhibition test (S-(+)-mephenytoin to 4'-hydroxymephenytoin). As to conditions: human, pH 7.4, probe S-(+)-mephenytoin (to 4'-hydroxymephenytoin), test compound 10 μM; human CYP2C19 yeast expression system microsome; 4'-hydroxymephenytoin generated vs control; read-out: CYP2C19 residual activity (%). Format: in vitro ADME. As to the method: (Human CYP2C19 Activity Inhibition Test)
CYP2C19 specifically participates in the metabolism reaction from S-(+)-mephenytoin to 4′-hydroxymephenytoin. Therefore, by use of an expression system CYP2C19, the production amount (concentration) of 4′-hydroxymephenytoin, serving as an index for CYP2C19 activity, was determined, whereby the inhibitory action of respective test substances was investigated.
(a) Metabolizing Activity Test
A solution of S-(+)-mephenytoin in methanol (125 μmol/L, 50 μL) and a solution of a test substance in methanol (25 μmol/L, 0, 10, 100, or 200 μL) were placed in a 10-mL glass test tube. The solvent was removed under a nitrogen gas at 40° C. A 75 μL mixture of 0.5M phosphate buffer (pH 7.4)-0.5 mM EDTA (20:10), 140 μL purified water, and 10 μL human CYP2C19 yeast expression system microsome (purchased from Sumitomo Chemical Co., Ltd.) were added.
Incubation was performed for 10 minutes at 37° C. Subsequently, aqueous 12% perchloric acid solution (50 μL) was added, to thereby stop the reaction.
After the reaction was stopped, an internal standard substance (I.S.) methyl p-hydroxybenzoate (100 μg/ mL, 50 μL), and diethyl ether (2 mL) were added. The mixture was shaken for 10 minutes, followed by centrifugation at 3,000 rpm for 10 minutes. The organic layer was separated, and the solvent was removed under a nitrogen gas at 40° C. The residue was dissolved in a 200 μL mobile phase, and the mixture was subjected to analysis by high performance liquid chromatography (HPLC).
In order to generate a calibration curve, the general procedure of the above process was repeated by use of 4′-hydroxymephenytoin solution instead of the S-(+)-mephenytoin solution. Quantitation was performed on the basis of the peak area ratio of 4′-hydroxymephenytoin to I.S. The amount of 4′-hydroxymephenytoin generated in the control sample was compared with that generated in the present of a test compound, and the results of comparison were used as an activity index.
HPLC was performed under the conditions described below (HPLC conditions A or HPLC conditions B).

T1 sequence (P19156 2-1034 limits assumed): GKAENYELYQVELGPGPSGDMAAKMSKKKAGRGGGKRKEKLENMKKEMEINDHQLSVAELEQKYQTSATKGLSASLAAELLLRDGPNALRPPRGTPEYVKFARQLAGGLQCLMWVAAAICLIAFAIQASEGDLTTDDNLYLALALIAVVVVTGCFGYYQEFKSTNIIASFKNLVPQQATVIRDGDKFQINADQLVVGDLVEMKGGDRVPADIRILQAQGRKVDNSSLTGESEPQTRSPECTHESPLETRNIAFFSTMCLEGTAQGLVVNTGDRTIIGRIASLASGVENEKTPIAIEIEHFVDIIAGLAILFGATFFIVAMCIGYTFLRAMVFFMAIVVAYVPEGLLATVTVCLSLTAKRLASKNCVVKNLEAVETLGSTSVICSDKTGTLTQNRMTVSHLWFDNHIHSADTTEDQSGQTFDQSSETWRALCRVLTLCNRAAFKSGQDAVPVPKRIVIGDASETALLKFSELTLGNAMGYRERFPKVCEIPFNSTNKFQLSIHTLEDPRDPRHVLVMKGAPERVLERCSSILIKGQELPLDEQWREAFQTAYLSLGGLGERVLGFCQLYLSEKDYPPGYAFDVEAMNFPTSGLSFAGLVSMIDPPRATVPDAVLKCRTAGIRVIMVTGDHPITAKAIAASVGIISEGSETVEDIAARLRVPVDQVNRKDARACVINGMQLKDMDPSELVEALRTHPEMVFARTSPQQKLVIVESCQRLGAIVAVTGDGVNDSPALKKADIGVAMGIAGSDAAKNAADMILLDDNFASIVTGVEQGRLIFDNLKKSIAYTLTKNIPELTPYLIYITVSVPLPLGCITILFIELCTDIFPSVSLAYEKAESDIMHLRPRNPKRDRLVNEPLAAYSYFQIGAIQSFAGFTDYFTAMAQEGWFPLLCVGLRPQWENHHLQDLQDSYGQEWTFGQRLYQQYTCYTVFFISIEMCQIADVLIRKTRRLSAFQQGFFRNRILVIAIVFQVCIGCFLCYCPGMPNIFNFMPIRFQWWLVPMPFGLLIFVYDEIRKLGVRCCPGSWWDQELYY
T1 sequence (P18434 whole entry partner): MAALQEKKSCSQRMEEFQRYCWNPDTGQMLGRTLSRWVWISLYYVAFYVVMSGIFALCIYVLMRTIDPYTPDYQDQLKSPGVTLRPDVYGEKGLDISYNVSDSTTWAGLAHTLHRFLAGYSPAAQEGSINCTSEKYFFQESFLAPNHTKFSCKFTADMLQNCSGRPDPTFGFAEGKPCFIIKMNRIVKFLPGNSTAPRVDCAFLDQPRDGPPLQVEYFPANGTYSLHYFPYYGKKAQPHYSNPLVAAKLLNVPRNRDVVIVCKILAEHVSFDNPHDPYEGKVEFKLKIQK
T2 sequence (P33261 whole entry): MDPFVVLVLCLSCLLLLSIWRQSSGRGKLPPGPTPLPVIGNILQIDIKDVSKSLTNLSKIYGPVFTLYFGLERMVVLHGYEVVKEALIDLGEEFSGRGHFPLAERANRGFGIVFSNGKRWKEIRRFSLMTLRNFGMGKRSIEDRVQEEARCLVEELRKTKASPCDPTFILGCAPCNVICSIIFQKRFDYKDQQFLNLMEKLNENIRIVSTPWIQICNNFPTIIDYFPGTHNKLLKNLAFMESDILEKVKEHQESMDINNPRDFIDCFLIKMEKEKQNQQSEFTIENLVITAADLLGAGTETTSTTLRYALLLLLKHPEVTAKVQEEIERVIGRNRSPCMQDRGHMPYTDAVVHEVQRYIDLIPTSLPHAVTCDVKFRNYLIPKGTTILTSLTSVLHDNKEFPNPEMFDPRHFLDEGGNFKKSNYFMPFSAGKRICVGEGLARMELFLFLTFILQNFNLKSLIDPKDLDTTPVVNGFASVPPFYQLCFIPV

Regarding `COCCCOc1ccnc(C[S+]([O-])c2nc3ccccc3[nH]2)c1C` (stereo not drawn) [rabeprazole, reference compound], in series [1], the IC50 was found to be 1.61 µmol/L. Besides, the activity at 10 min, 10 µM in series [2] stood at 39.8%.

With `COc1c(OCCCC(F)(F)F)ccnc1C[S+]([O-])c1nc2ccccc2[nH]1` (single isomer, unassigned; (-)) [Example 6(1), (−)-2-[3-methoxy-4-(4,4,4-trifluorobutoxy)pyridin-2-yl-methanesulfinyl]-1H-benzimidazole], the IC50 in series [1] turned out to be 2.5 µmol/L. The activity at 10 min, 10 µM in series [2] is 66.4%.

Consider `Cc1c(OCC(F)(F)F)ccnc1C[S+]([O-])c1nc2ccccc2[nH]1` (stereo not drawn) [lansoprazole, reference compound], for which, in series [1], the IC50 worked out at 1.61 µmol/L. Moreover, the activity at 10 min, 10 µM in series [2] stood at 8.7%.

On to `COc1ccnc(C[S+]([O-])c2nc3ccc(OC(F)F)cc3[nH]2)c1OC` (stereo not drawn) [pantoprazole, reference compound], for which the IC50 in series [1] was 5.46 µmol/L. The activity at 10 min, 10 µM in series [2] was 33.1%.

For `[O-][S+](Cc1cc(OCCCC(F)(F)F)ccn1)c1nc2ccccc2[nH]1` (stereo not drawn) [Example 9(3), 2-[4-(4,4,4-trifluorobutoxy)pyridin-2-yl-methanesulfinyl]-1H-benzimidazole], the IC50 in series [1] is 3.56 µmol/L. In addition, the activity at 10 min, 10 µM in series [2] came to 76.1%.

For `COc1ccc2nc([S@@+]([O-])Cc3ncc(C)c(OC)c3C)[nH]c2c1` [esomeprazole, reference compound], in series [1], the IC50 turned out to be 2.06 µmol/L. The activity at 10 min, 10 µM in series [2] was 35.4%.

Regarding `COc1c(OCCOCC(F)(F)F)ccnc1C[S+]([O-])c1nc2ccccc2[nH]1` (stereo not drawn) [Example 2(2), 2-{3-methoxy-4-[2-(2,2,2-trifluoroethoxy)ethoxy]pyridin-2-yl-methylsulfinyl}-1H-benzimidazole], the IC50 in series [1] was 3.37 µmol/L. For the same molecule, the activity at 10 min, 10 µM in series [2] amounted to 66.5%.

Take `COc1ccc2[nH]c([S+]([O-])Cc3ncc(C)c(OC)c3C)nc2c1` (stereo not drawn) [omeprazole, reference compound]: the IC50 in series [1] is 1.01 µmol/L. The activity at 10 min, 10 µM in series [2] stood at 18.4%.

In the case of `[O-][S+](Cc1cc(OCCCC(F)(F)F)ccn1)c1nc2ccccc2[nH]1` (single isomer, unassigned; (-)) [Example 10(2), (−)-2-[4-(4,4,4-trifluorobutoxy)pyridin-2-yl-methanesulfinyl]-1H-benzimidazole], in series [1], the IC50 stood at 3.03 µmol/L. Further, the activity at 10 min, 10 µM in series [2] came to 89.4%.

Consider `COc1c(OCCCC(F)(F)F)ccnc1C[S+]([O-])c1nc2ccccc2[nH]1` (stereo not drawn) [Example 1(2), 2-[3-methoxy-4-(4,4,4-trifluorobutoxy)pyridin-2-yl-methylsulfinyl]-1H-benzimidazole], for which, in series [1], the IC50 came to 4.16 µmol/L. Further, the activity at 10 min, 10 µM in series [2] is 71.2%.

In the case of `[O-][S+](Cc1cc(OCCOCC(F)(F)F)ccn1)c1nc2ccccc2[nH]1` (single isomer, unassigned; (-)) [Example 13(3), (−)-2-{4-[2-(2,2,2-trifluoroethoxy)ethoxy]pyridin-2-yl-methanesulfinyl}-1H-benzimidazole], in series [1], the IC50 was 7.37 µmol/L. In addition, in series [2], the activity at 10 min, 10 µM was 98.6%.

With `COc1c(OCCOCC(F)(F)F)ccnc1C[S+]([O-])c1nc2ccccc2[nH]1` (single isomer, unassigned; (+)) [Example 3(2), (+)-2-{3-methoxy-4-[2-(2,2,2-trifluoroethoxy)ethoxy]pyridin-2-yl-methylsulfinyl}-1H-benzimidazole], the IC50 in series [1] is 4.05 µmol/L. Besides, in series [2], the activity at 10 min, 10 µM worked out at 98.3%.
